Results from paper PMC11790956, “A microscale thermophoresis-based enzymatic RNA methyltransferase assay enables the discovery of DNMT2 inhibitors” (Communications Chemistry, 2025).
“Also recorded” adds a separate entry of the source.

Columns and labels:
DNMT2-tRNA complex = target: T1, DNMT2-tRNA complex (Homo sapiens, UniProt O14717); assay: Electrophoretic mobility shift assay (EMSA) of the DNMT2-tRNA complex; assay type: binding; settings: 500 µM compound, DNMT2 10 µM, tRNAAsp 5 µM
T1 construct: made in house
T1 sequence (O14717 1-391): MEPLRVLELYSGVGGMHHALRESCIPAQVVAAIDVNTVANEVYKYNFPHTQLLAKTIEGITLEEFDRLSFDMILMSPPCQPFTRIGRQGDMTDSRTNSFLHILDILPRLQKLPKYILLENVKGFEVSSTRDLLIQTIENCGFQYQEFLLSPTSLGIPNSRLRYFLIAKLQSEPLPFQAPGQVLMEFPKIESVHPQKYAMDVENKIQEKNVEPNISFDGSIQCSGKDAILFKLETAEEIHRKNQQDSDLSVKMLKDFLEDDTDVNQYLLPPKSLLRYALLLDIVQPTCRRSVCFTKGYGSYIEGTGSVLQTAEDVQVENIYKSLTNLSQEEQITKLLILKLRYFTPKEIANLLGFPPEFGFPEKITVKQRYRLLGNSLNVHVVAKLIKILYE
Experimental: We speculated these hits might bind very weakly to the tRNA-DNMT2 interaction site and by this inhibit DNMT2 activity. To test this hypothesis, we performed an electrophoretic mobility shift assay (EMSA) using tRNA^Asp (5 µM) and DNMT2 (10 µM) compared to the tRNA sample in absence of the DNMT2 protein (SI Fig. 4)[33]. […] Subsequently, we treated the DNMT2-tRNA complex with all hit compounds at 500 µM and observed their potential to disrupt the complex.
DNMT2 (10 µM) was mixed with tRNA^Asp (5 µM) and treated with 500 µM of the respective screening hit compound in DNMT2 assay buffer (100 mM Tris-HCl, pH 8, 100 mM NH4OAc, 0.1 mM EDTA, 10 mM MgCl2, 10 mM DTT). Subsequently, reaction samples (each 5 µL) were loaded to a native 10% polyacrylamide gel and separated electrophoretically (1 h, 180 V) in 1x TBE. RNA was stained in situ with 1x GelRed and PAGE analysis was conducted by fluorescence scanning at an excitation wavelength of 532 nm (Amersham Typhoon 9400). Positive control: DNMT2+tRNA (band at high molecular weights); negative control: only tRNA (band at low molecular weights).
SI Figure 4. Electrophore?c mobility shi? assay (EMSA) to inves?gate the inﬂuence of screening hits on the DNMT2-tRNA complex forma?on. D NMT2 (10 µ M ) was mixe d w it h t RNAAsp (5 µM) and treated with 50 0 µM of the respec?ve screening hit compound in DNMT2 assay buﬀer. All reac?on samples (each 5 µL) were loaded to a na?ve 10% polyacr ylamide gel and separated electrophore?cally (1 h, 1 80 V) in 1x TBE. RNA was stained in situ with 1x GelRed and PAGE analysis was conducted by ﬂuorescence scanning at an excita?on wavelength of 532 nm (Amersham Typhoon 9400). Po s i ? ve control: DNMT2+tRNA (band at high molecular weights); nega?ve control: only tRNA (band at low

DNMT2 [1] = target: T2, DNMT2 (Homo sapiens, UniProt O14717); assay: DNMT2 fluorescence polarization (FP) FTAD displacement assay; assay type: binding
T2 construct: made in house
T2 sequence (O14717 1-391): T1 sequence (O14717 1-391)
Experimental: Fluorescence polarization assays were conducted with a similar sample composition as described for FTAD-MST assays as described previously. Triplicates (50 µL) were prepared in black 96-well half-area plates (Greiner) and measured using a Spark 10 M plate reader (Tecan) equipped with polarization filters coupled to a monochromator setup (FTAD: λex = 480 nm, λem = 530 nm). Polarization values (in mP) were calculated from polarization-specific parallel and orthogonal fluorescence intensities according to the Tecan in-built calculation routine.
Reversibility of alexidine binding to DNMT2 was evaluated with a modified FP-assay setup. Briefly, reaction mixtures containing alexidine were prepared in black 96-well half-area plates, and after FP measurement, the volume of one well (50 µL) was collected and applied to a Zeba™ Spin Desalting Column (7 K MWCO) while 5 µL of a 10x DNMT2 buffer solution (500 mM HEPES, 1.5 M NaCl, 10 mM dithiothreitol (DTT), 1% PEG-8000, 0.5% polysorbate-20, pH 7.4) was placed in the collection tube attached to the SEC column. This procedure separated alexidine and restored the initial composition of the DNMT2 assay solution.
Kinetic FP assays were performed to assess the time-dependent inactivation of DNMT2 treated with covalent inhibitors. Briefly, samples contained 2 µM DNMT2, 100 nM FTAD probe, and 1.3% DMSO in DNMT2 MST buffer. Inhibitors were added from DMSO stocks. Negative inhibition control was performed by mock treatment with DMSO. Reactions were initiated by the addition of the Cpd 11 (adamantanyl-acryloylurea) and monitored for 120 min at 25 °C in a Tecan Spark 10 M plate reader (FTAD: λex = 480 nm, λem = 530 nm) The irreversible inhibition kinetics were analyzed as described previously[35],[36].

DNMT2 [2] = target: T2, DNMT2; assay: DNMT2 enzymatic split aptamer MST assay; assay type: biochemical
Experimental: The enzyme kinetics were characterized by calculating the Michaelis-Menten constant (KM or kcat) and inhibitory constants (IC50 resp. KI).
The final drug compound concentration was adjusted to 500 µM for the epigenetic drug library (Fig. 5) resp. 100 µM for the covalent compound library (Fig. 6), and the enzymatic reaction was incubated for 30 min at 25 °C. Subsequently, enzymatic reactions were terminated by the addition of 0.3% SDS, and the product SAH was quantified by the split aptamer MST assay (Figs. 5A, B, 6A).

[3] = system: aptaSAH1&2 SAH split aptamer; assay: Split aptamer (aptaSAH1&2) MST ligand titration; assay type: binding, D. aromatica
Experimental: To establish our experimental setup, we mixed both aptamer fragment oligonucleotides at equimolar concentrations (final: 50 nM) and titrated series of SAH resp. SAM dilutions to this prototypical SAH biosensor. […] Furthermore, MST assays require only 10 µL of sample volume per capillary compared to 30 µL per well in a 96-well plate supporting high-throughput applications in material consumption.
To evaluate the effect of inhibitors on DNMT2 activity, we used two known inhibitors, SHO108 and SH112. These SAH derivatives were selected based on their documented efficacy for DNMT2[8],[26].
For MTase assay detection by MST, enzyme reaction mixtures with a total volume of 10 µL per single treatment condition were prepared and incubated for the desired reaction times. Inhibitors were added from corresponding DMSO stocks to a final DMSO concentration of max. 5%. Afterward, reactions were quenched at a given reaction time by the addition of 1 µL sodium dodecyl sulfate (SDS, solution, 3% in water) per 10 µL reaction mixture and mixed well by pipetting. Subsequently, 1 µL of a 10× aptamer-containing detection master mix (200 mM Tris, pH 8.5, 200 mM MgCl2, 3 M NaCl, 10 mM urea, 0.2% Brij, 500 nM aptaSAH1, 500 nM aptaSAH2) was added to the quenched MTase reaction and incubated for 1 h at room temperature. Reaction mixtures were loaded directly to MST capillaries without further purification or sample processing.
MST experiments were carried out in at least technical triplicates using a Monolith NT.115 instrument (NanoTemper Technologies) using Monolith standard capillaries and the blue excitation laser setup. The instrument was calibrated according to the manufacturer’s instructions. General settings were applied for all MST experiments as follows: manual temperature control: 25 °C, fluorescence measurement before MST: 4 s, MST (IR laser) on: 20 s, fluorescence after MST: 2 s, delay: 25 s. The laser power was adjusted to optimize the signal-to-noise ratio and the fluorescence signal. LED and MST power settings were chosen individually for each sample by adjusting the LED power to yield fluorescence signals of at least 300 units (blue laser) or 3000 units (red laser) and the MST power to achieve an appropriate thermophoretic response (standard setting: medium MST power). MST measurements were analyzed using the NT analysis software (version 1.5.41) and exported for statistical analysis and plotting in GraphPad Prism 7.01.

DNMT2 [4] = target: T2, DNMT2; assay: Fluorescent tracer displacement assay (FTAD-MST assay); assay type: binding
Source text: (§1) To further validate our findings on DNMT2, we compared the split aptamer inhibition assay results of both inhibitors with those obtained from a previously published orthogonal assay method, the radiometric ^3H incorporation assay[8],[26]. […] Using an additional non-enzymatic MTase assay technique, we also investigated the two DNMT2 inhibitors utilizing an orthogonal MST method based on a fluorescent tracer displacement assay (SI Fig. 1)[27],[28].
Fluorescent tracer displacement MST assays for orthogonal ligand evaluation were conducted as described previously. The samples contained 2 µM DNMT2, 100 nM FTAD probe, and 1.3% DMSO in MST buffer (50 mM HEPES, 150 mM NaCl, 1 mM dithiothreitol (DTT), 0.1% PEG-8000, 0.05% polysorbate-20, pH 7.4) supplemented with variable concentrations of the screening compounds. All samples were measured in triplicates in Monolith standard capillaries at 25 °C. The acquisition mode was set to “Nano-Blue” with an excitation power of 30% and a medium MST power. MST measurements were analyzed using the NT analysis software (version 1.5.41) and exported for statistical analysis and plotting in GraphPad Prism 7.01.

DNMT2 [5] = target: T2, DNMT2; assay: DNMT2 radiometric 3H incorporation assay; assay type: biochemical
Experimental: as §1
Radiometric DNMT2 assays were carried out as described previously. HTRF MTase assays with the commercial AptaFluor SAH assay kit (BellBrook Labs) were performed as described in the manufacturer’s manual in 96-well format.

SMILES: c1cc(-c2cnn3cc(-c4ccc(OCCN5CCCCC5)cc4)cnc23)ccn1 [Cpd 1]
- influence on DNMT2-tRNA complex formation (DNMT2-tRNA complex): showed the potential to reverse the complex formation

SMILES: COc1cc2nc(N3CCCN(C)CC3)nc(NC3CCN(Cc4ccccc4)CC3)c2cc1OC [Cpd 2]
- influence on DNMT2-tRNA complex formation (DNMT2-tRNA complex): showed the potential to reverse the complex formation

SMILES: CCCCC(CC)CNC(=N)NC(=N)NCCCCCCNC(=N)NC(=N)NCC(CC)CCCC (stereo not shown) [Cpd 3, alexidine]
- fluorescence polarization in the presence of compound (DNMT2 [1]; DNMT2-FTAD complex alone 96 mP): 5 mP
- Kd (DNMT2 [1]; DNMT2 FP assay, FTAD tracer): 364 µM
- reversibility of binding (DNMT2 [1]; FP displacement with SEC separation): fully reversible binder
- displacement of FTAD tracer / binding to SAH-binding site (DNMT2 [1]; FP library screening with FTAD tracer): binding to the SAH-binding site; also recorded: able to compete with the fluorescent SAH-analog
- fluorescence polarization restored after size-exclusion chromatography (DNMT2 [1]; after SEC removal of compound): 92 mP
- fluorescence polarization after second treatment (DNMT2 [1]; second treatment after SEC): 4 mP
- influence on DNMT2-tRNA complex formation (DNMT2-tRNA complex): do not inﬂuence the complex; also recorded: did not influence DNMT2-tRNA complex formation
- DNMT2 inhibition at concentrations <500 µM (DNMT2 [2]; enzymatic aptamer assay): showed inhibition

SMILES: CC(=O)c1cc([N+](=O)[O-])c(Sc2ccc(F)cc2F)s1 [Cpd 4]
- influence on DNMT2-tRNA complex formation (DNMT2-tRNA complex): do not inﬂuence the complex; also recorded: unable to disrupt the protein-tRNA complex

SMILES: Cc1ncc(Cl)cc1NCc1ccc(C(=O)N[C@@H](CC2CCCC2)C(=O)NC2CC2)s1 [Cpd 5]
- influence on DNMT2-tRNA complex formation (DNMT2-tRNA complex): showed the potential to reverse the complex formation

SMILES: COc1ccn2ncc(-c3nc4[nH]nc(NC(=O)c5ccc(F)cc5)c4cc3F)c2c1 [Cpd 6]
- influence on DNMT2-tRNA complex formation (DNMT2-tRNA complex): showed the potential to reverse the complex formation

SMILES: Cc1cc(Nc2cc(Cl)nc(Oc3ccc([N+](=O)[O-])cc3)n2)n[nH]1 [Cpd 7]
- influence on DNMT2-tRNA complex formation (DNMT2-tRNA complex): do not inﬂuence the complex; also recorded: unable to disrupt the protein-tRNA complex

SMILES: N[C@H](CNc1nc(-c2ccncc2)nc2sc3c(c12)CCCC3)Cc1ccccc1 [Cpd 8]
- influence on DNMT2-tRNA complex formation (DNMT2-tRNA complex): showed the potential to reverse the complex formation

SMILES: CNC(=O)Nc1ccc2c(c1)CCC21OC(=O)N(CC(=O)N(Cc2ccc(F)cc2)C(C)C(F)(F)F)C1=O (stereo not shown) [Cpd 9]
- influence on DNMT2-tRNA complex formation (DNMT2-tRNA complex): showed the potential to reverse the complex formation

SMILES: Cc1ccc(C(=O)COC(=O)c2cccc(NC(=O)c3ccc([N+](=O)[O-])cc3[N+](=O)[O-])c2)cc1 [Cpd 10]
- influence on DNMT2-tRNA complex formation (DNMT2-tRNA complex): do not inﬂuence the complex; also recorded: unable to disrupt the protein-tRNA complex

SMILES: Nc1ncnc2c1ncn2[C@@H]1O[C@H](CN(CC[C@H](N)C(=O)O)Cc2ccc(Cl)c(C(F)(F)F)c2)[C@@H](O)[C@H]1O [SH112, (S)-2-amino-4-((((2 R,3S,4 R,5 R)-5-(6-amino-9H-purin-9-yl)-3,4-dihydroxytetrahydrofuran-2-yl)methyl)(4-chloro-3-(trifluoromethyl)benzyl)amino)butanoic acid]
- binding to split aptamer (MST shift) ([3]; inhibitor titrated up to 100 µM without enzyme or RNA substrate, compared to the SAH-positive control): not binding to the aptamer at relevant concentrations; also recorded: only minimal MST shifts
- Kd (DNMT2 [4]): 7.8 µM
- IC50 (DNMT2 [5]): 15.6 ± 3.9 µM
- IC50 (DNMT2 [2]; MST-derived, 250 nM DNMT2, 5 µM tRNA, 0.9 µM SAM): 9.3 ± 1.7 µM

SMILES: Nc1ncnc2c1ncn2[C@@H]1O[C@H](C[C@@H](N)CC[C@H](N)C(=O)O)[C@@H](O)[C@H]1O [sinefungin]
- binding to split aptamer (MST shift) ([3]; SAH analogs at 10 µM, aptaSAH1&2 both 50 nM): slight MST shift
